Laboratory results: patent publication US9399032B2, “Methods and compositions for treating degenerative and ischemic disorders” (The General Hospital Corporation, priority 2009, dated 2016)
Counter-ions that a name gives are not always drawn.

Columns and labels:
293 cells = test: Uncoupler (CCCP)-stimulated respiration in intact cells; assay type: cell-based; settings: 25 μM, 6 hours pre-treatment
Procedure: 293 cells pre-treated with 25 μM meclizine for 6 hours fail to stimulate oxygen consumption to the same extent as DMSO treated controls after treatment with CCCP. Data expressed as mean±SD (n=3; *p value<0.01).
The upregulation of phosphoethanolamine was confirmed by orthogonal chromatography, as well as via ^31P-NMR. […] Previous studies have shown that phosphoethanolamine can be elevated in tumor cells, and that ethanolamine and PEA can directly silence mitochondrial OXPHOS. Zhu et al., J Lipid Res 49: 2197 (2008); and Modica-Napolitano et al., Biol Psychiatry 55:273 (2004). To test the effect of phosphoethanolamine (PEA) on mitochondrial respiration, mitochondria were incubated with varying concentration of phosphoethanolamine for ˜1 min prior to the addition of 2.5 mM glutamate and 2.5 mM malate followed by the addition of 1 μM CCCP. […] See FIGS. 16A and 16B, respectively.

[1] = test system: primary cardiomyocytes isolated from rat heart; test: Respiration in primary cardiomyocytes; assay type: cell-based; settings: 20 min exposure
Procedure: Cardiomyocytes were exposed to the indicated concentration of meclizine for 20 min followed by oxygen measurement in the respiration chamber. Typical respiration traces are shown.
Meclizine was confirmed to shift a cell's relative reliance on OXPHOS versus glycolysis by whole cell bioenergetic kinetic assays. […] This was true in primary cardiomyocytes isolated from rat heart (FIG. 3K) and primary cortical neurons isolated from mouse embryos (FIG. 3L). Cardiomyocytes were exposed to the indicated concentration of meclizine for 20 min followed by oxygen measurement in a respiration chamber. Oxygen consumption rate (OCR) measurements were made following meclizine (5 and 10 μM) or antimycin (1 μM) addition at time 0 (min) in mouse primary cortical neurons obtained from day E14-15 embryos.

[2] = Blood glucose levels in R6 mice; assay type: in vivo
[3] = test system: isolated, ex vivo, hearts; test: Ischemia-reperfusion in isolated ex vivo retrograde-perfused (Langendorf) hearts; settings: compared to untreated controls
Procedure: The effect of meclizine in isolated, ex vivo, hearts was assessed using retrograde-perfused hearts and the Langendorf heart (Nadtochiy et al., Biochem. J., 395:611-618 (2006)). Hearts were then subjected to a period of ischemia followed by reperfusion.

MCH58 fibroblasts = test: Global gene expression profile and quantitative RT-PCR; assay type: cell-based, human
Procedure: Next, a global gene expression profile was performed on fibroblasts following a six hour meclizine treatment (i.e., a time point having maximal OXPHOS inhibition). Oligonucleotide microarray experiments were conducted as follows. Total RNA was extracted from ˜2 million MCH58 cells with RNeasy mini kit (Qiagen). Cells were either grown in 10 mM glucose or 10 mM galactose for 3 passages and for the drug treated samples, and treated with either 0.1% DMSO or 50 μM meclizine for 6 hours. 10 ug of RNA was used to synthesize cDNA with a T7-(dT)24 primer and the SuperScript one-cycle cDNA synthesis kit (Affymetrix). cRNA labeling, hybridization to human U133 plus 2.0 oligonucleotide array (Affymetrix, CA), washing and staining were performed as recommended by Affymetrix. For each condition, 3 biological replicates were used for the total of 6 arrays. GLS expression was confirmed by quantitative RT-PCR using TaqMan assay (Applied Biosystems).

[4] = test system: Immortalized mouse striatal 20A5 cells; test: Oxygen and glucose deprivation model of ischemia and reperfusion; assay type: cell-based; settings: 25 μM pretreatment for 8 hours, over vehicle
Procedure: Immortalized mouse striatal 20A5 cells grown in DMEM with 10% dialyzed fetal bovine serum were exposed to oxygen and glucose deprivation for 18 hours followed by 12 hours of recovery in normoxia with full media. This IR model induces roughly 30% decrease in cell viability as measured by the ATP luminescence assay CellTiter-GLO.

male C57BL/6 mice = test: Murine model of stroke (transient middle cerebral artery occlusion); assay type: in vivo, mouse
[5] = test system: human skin fibroblasts, mouse striatal cells, human embryonic kidney cells, and Hela cells; test: OCR and ECAR in other cell types; assay type: cell-based; settings: 50 μM, 200 minutes
Procedure: The OCR and ECAR measurements on HeLa, 293, and STHdh^Q7/7 mouse striatal cells were carried out by growing them in XF24 plates at 40,000/well (HeLa) and STHdh^Q7/7 mouse striatal cells) and 60,000/well (293 cells) for ˜20 hours in their regular growth conditions. The assay medium was the same as above except that 25 mM glucose was used as the sugar source. The measurements were performed simultaneously every 7 minutes after a 2 minute mix and 2 minute wait period for MCH fibroblasts and every 6 minutes (with 2 minutes mix and 2 minute wait) for HeLa, 293, and STHdh^Q7/7 mouse striatal cells. Three baseline measurements were recorded prior to the addition of oligomycin (Biochemika 75352), Antimycin (Sigma A8674), roetnone (Sigma R8875), carbonyl cyanide 3-chlorophenylhydrazone (Sigma C2759) and meclizine hydrochloride (MSDiscovery 01500376). 50 mM stock solution of meclizine was made in DMSO, which was diluted to specified concentration in assay medium and its pH was adjusted to 7.4 by 1N Sodium hydroxide solution. The measurements were carried out at 33° C. for mouse striatal cells but for all other cell types measurement were done at 37° C.

GLS expressing 293 cells = test: OCR in 293 cells with forced GLS expression; assay type: cell-based; settings: 50 μM
Procedure: FIG. 14B presents exemplary data showing OCR measurements on FACS sorted control (LacZ) or GLS expressing cells following DMSO or 50 μM meclizine addition at time 0 min (n=4).
Glutaminase full length cDNA (Open Biosystems, Accession #BCO38507) was amplified using proof-reading TAQ polymerase (Accuprime, Invitrogen) with primers which included attb1 and attb2 sites for subsequent subcloning into pDONR 221 vector (Invitrogen). Partial Kozak sequence was included in the 5′ primer and stop codon was eliminated in the 3′ primer. The sequences of forward (F) and reverse primers (R) are—5′-GGGGACAAGTTTGTACAAAAAAGCAGGCTCCACCATGATGCGGCTGCGAGGCTC-3′ (SEQ ID NO: 2); and 5′-GGGGACCACTTTGTACAAGAAAGCTGGGTCCAACAATCCATCAAGATTCT-3′ (SEQ ID NO: 3), respectively. Resulting PCR fragment was cloned into Gateway entry vector pDONR 221 (Invitrogen) with BP clonase using STBL2 E. coli competent cells (Invitrogen). Subsequently, it was subcloned into destination vector pcDNA6.2-EMGFP-DEST with LR clonase and was sequenced verified. The 293 cells were transfected with the pcDNA6.2-GLS-GFP and the control vector pcDNA6.2-LacZ-GFP using Fugene (Roche) reagent. GLS expression was confirmed by Western blot using anti-GLS antibody. FACS sorted transfected cells were subjected to meclizine treatment followed by OCR and ECAR measurements.

Cc1cccc(CN2CCN(C(c3ccccc3)c3ccc(Cl)cc3)CC2)c1 (racemic) [Meclizine, meclizine hydrochloride]
uncoupler-stimulated respiration in intact cells (293 cells): blunts uncoupler-stimulated respiration | respiration in primary cardiomyocytes [1]: inhibits respiration | blood glucose levels [2]: reduces blood glucose levels | infarct size (heart) [3]: smaller infarct size | rate pressure after I/R [3]: increase in rate pressure | HK2 expression fold change (MCH58 fibroblasts; 50 μM, 6 hours): 1.5 fold | TXNIP expression downregulated (MCH58 fibroblasts; 50 μM, 6 hours): 35% | GLS expression downregulated (microarray) (MCH58 fibroblasts; 50 μM, 6 hours, relative to vehicle): ~40% | reduction in GLS transcript by quantitative real-time PCR (MCH58 fibroblasts; 6 hours of treatment): 50% | cell viability after oxygen and glucose deprivation [4]: significant improvement in cell viability | CBF (cerebral blood flow) (male C57BL/6 mice; 100 mg/kg i.p.): did not differ significantly | infarct volume (brain) (male C57BL/6 mice; two intraperitoneal injections of 100 mg/kg at 17 and 3 hours before ischemia): significantly lower | oxygen consumption and extracellular acidification rate in other cell types [5]: reductions in oxygen consumption and concomitant increase in extracellular acidification rate | oxygen consumption with constitutive GLS expression (GLS expressing 293 cells): continued to suppress oxygen consumption
